SMILES strings stand for the structures.

From patent US9687453B2, “Solid pharmaceutical composition” (KYORIN PHARMACEUTICAL CO., LTD., priority 2013, dated 2017) come the findings set out here.

The nature of this data set: pH of acidic substance (2.5% liquid in water, pH meter). The format is physicochemical. As to conditions: 50 mg in 1,950 μL of water (concentration 2.5%). On the procedure: The “acidic substance” described herein is a substance which is dissolved in water to generate hydrogen ions.

Compound `Cl.N[C@@H](CCC(=O)O)C(=O)O` [L-glutamic acid hydrochloride] yielded a pH not above 3.5.
